This assay deals with Epidermal growth factor receptor (Homo sapiens, UniProt P00533). Nature of the assay: Kinase-Glo Plus Luminescence Kinase Assay. How it is done: Kinase activity was determined using Kinase-Glo Plus luminescence kinase assay kit according to the manufacturer instructions. The assays depend on the quantitation of the amount of ATP remaining in the solution of kinase reaction.
Epidermal growth factor receptor, sequence (P00533 whole entry): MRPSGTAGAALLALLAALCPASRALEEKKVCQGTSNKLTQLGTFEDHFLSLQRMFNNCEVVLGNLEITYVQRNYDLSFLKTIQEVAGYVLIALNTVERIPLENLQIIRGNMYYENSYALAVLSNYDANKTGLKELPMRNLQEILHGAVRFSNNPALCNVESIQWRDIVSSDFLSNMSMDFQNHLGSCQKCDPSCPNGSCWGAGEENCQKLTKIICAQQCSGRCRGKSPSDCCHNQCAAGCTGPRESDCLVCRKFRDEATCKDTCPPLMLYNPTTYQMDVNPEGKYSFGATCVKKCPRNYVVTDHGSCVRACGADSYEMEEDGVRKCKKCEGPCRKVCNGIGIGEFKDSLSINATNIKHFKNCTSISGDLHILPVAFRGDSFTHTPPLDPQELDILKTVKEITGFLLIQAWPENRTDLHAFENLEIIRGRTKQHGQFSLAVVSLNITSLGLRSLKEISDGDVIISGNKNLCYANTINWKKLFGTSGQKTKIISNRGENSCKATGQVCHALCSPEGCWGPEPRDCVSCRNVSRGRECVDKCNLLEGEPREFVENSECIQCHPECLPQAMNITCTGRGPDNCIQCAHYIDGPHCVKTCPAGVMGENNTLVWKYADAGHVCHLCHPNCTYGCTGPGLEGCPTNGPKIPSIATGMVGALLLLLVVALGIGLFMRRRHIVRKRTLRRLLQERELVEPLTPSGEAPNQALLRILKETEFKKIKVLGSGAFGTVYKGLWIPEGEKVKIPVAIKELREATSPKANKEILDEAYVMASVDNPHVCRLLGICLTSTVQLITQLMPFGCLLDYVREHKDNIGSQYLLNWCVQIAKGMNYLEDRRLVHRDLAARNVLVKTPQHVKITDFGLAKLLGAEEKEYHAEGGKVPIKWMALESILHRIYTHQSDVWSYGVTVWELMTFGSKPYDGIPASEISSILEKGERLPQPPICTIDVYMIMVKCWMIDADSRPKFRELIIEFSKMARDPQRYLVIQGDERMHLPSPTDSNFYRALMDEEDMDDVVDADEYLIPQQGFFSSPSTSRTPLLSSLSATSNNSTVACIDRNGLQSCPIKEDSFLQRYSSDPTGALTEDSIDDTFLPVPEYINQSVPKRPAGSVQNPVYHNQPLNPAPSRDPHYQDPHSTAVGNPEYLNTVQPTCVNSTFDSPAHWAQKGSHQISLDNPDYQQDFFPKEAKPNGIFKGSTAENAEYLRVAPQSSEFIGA

The term IC50 denotes the concentration that gives 50% inhibition. Turning to `Cc1cc(OCC(=O)N/N=C/c2ccc(C(F)(F)F)cc2)c2c(C)nn(-c3ccccc3)c2n1` [N-(4-Trifluoromethylbenzylidene)-2-(3,6-dimethyl-1-phenyl-1H-pyrazolo[3,4-d]pyrimidin-4-yloxy)acetohydrazide (12f)], the IC50 came out at 35.9 µM.
Under `Cc1cc(OCC(=O)N/N=C/c2ccc(F)cc2)c2c(C)nn(-c3ccccc3)c2n1` [N-(4-fluorobenzylidene)-2-(3,6-dimethyl-1-phenyl-1H-pyrazolo[3,4-d]pyrimidin-4-yloxy)acetohydrazide (12b)] stands 30 µM.

For the origin of these results see BindingDB's records for doi:10.1016/j.bioorg.2016.03.011 (Beni-Suef University, 2016).
